{"source": "patent US7727995B2", "about": "“Antiherpes drug combinations” (University of Massachusetts, priority 2003, dated 2010)", "key": {"[1]": {"test_system": "HSV1", "conditions": "150 μM; trigeminal ganglia of HSV1 latent mice on Vero cells; cited from earlier work"}, "[2]": {"test_system": "McKrae strain of HSV-1", "experiment": "Inhibition of HSV encephalitis in mice, HSV-1 infection", "assay_type": "in vivo", "description": "(§1) BALB/c female mice at 6 weeks of age were anesthetized, their corneas lightly scratched with a 27-gauge needle, and 3 μl of infectious virus (McKrae strain of HSV-1 or G strain of HSV-2; 5×10^5 PFU) was placed on each cornea. At the time of infection, groups of ten animals were given 0.1 ml injections i.p. of vehicle (corn oil) or test drug or drug combination (e.g., HBPG or foscarnet or both) in vehicle at indicated concentrations, and the animals were returned to their cages and allowed to recover from anesthesia. Treatment was repeated by a regimen optimal for the drug combination and dose. Animals were observed daily for 30 days, and the day of death of each animal was recorded."}, "[3]": {"test_system": "G strain of HSV-2", "experiment": "Inhibition of HSV encephalitis in mice, HSV-2 infection", "assay_type": "in vivo", "description": "as §1"}, "[4]": {"test_system": "HSV1", "conditions": "cited from earlier work"}, "[5]": {"test_system": "HSV1", "conditions": "cited from earlier work", "remark": "listed apart in the source"}, "[6]": {"test_system": "HSV2", "conditions": "mice, cited from earlier work"}, "[7]": {"conditions": "HSV1, 1 mg/kg ip in corn oil, twice daily for five days"}, "[8]": {"conditions": "HSV1, 2.5 mg/kg ip in corn oil, twice daily for five days"}, "[9]": {"conditions": "HSV1, 5 mg/kg ip in corn oil, twice daily for five days"}, "[10]": {"conditions": "HSV2, 1 mg/kg ip in corn oil, twice daily for five days"}, "[11]": {"conditions": "HSV2, 2.5 mg/kg ip in corn oil, twice daily for five days"}, "[12]": {"conditions": "HSV2, 5 mg/kg ip in corn oil, twice daily for five days"}, "[13]": {"conditions": "HSV1, 100 mg/kg ip twice daily, 5 days, observed 30 days"}, "[14]": {"conditions": "HSV1, 200 mg/kg ip twice daily, 5 days"}, "[15]": {"conditions": "HSV1, 400 mg/kg ip twice daily, 5 days"}, "[16]": {"conditions": "HSV2, 100 mg/kg ip twice daily, 5 days"}, "[17]": {"conditions": "HSV2, 200 mg/kg ip twice daily, 5 days"}, "[18]": {"conditions": "HSV2, 400 mg/kg ip twice daily, 5 days"}, "[19]": {"conditions": "Table 2, HSV2, 50 mg/kg ip, bid, 5 d"}, "[20]": {"conditions": "Table 2, HSV2, 100 mg/kg ip, bid, 5 d"}, "[21]": {"conditions": "HSV1, 25 mg/kg ip in corn oil, twice daily for five days"}, "[22]": {"conditions": "HSV1, 50 mg/kg ip in corn oil, twice daily for five days"}, "[23]": {"conditions": "Table 5, HSV1, 100 mg/kg ip in corn oil, twice daily for five days"}}, "note": "Read-outs that look alike come from different tables or passages of the source. Marks after values point to notes of the source that are not given here."}
{"compound": "O=c1[nH]c(Nc2ccccc2)nc2c1ncn2[C@H]1C[C@H](O)[C@@H](CO)O1", "note": "[PhdG, N^2-phenyl-2′-deoxyguanosine]", "values": [{"measurement": "number of ganglia producing virus compared to control ganglia", "setting": "[1]", "value": "significantly reduced"}]}
{"compound": "Nc1ccn(C[C@@H](CO)OCP(=O)(O)O)c(=O)n1", "note": "[cidofovir]", "values": [{"measurement": "Survivors/treated", "setting": "[2]; [7]", "value": "0/10"}, {"measurement": "Survivors/treated (%)", "setting": "[2]; [7]", "value": 0, "unit": "%"}, {"measurement": "Survivors/treated", "setting": "[2]; [8]", "value": "3/10"}, {"measurement": "Survivors/treated (%)", "setting": "[2]; [8]", "value": 30, "unit": "%"}, {"measurement": "Survivors/treated", "setting": "[2]; [9]", "value": "9/10"}, {"measurement": "Survivors/treated (%)", "setting": "[2]; [9]", "value": 90, "unit": "%"}, {"measurement": "median effective dose", "setting": "[2]; HSV1 encephalitis, ip twice daily for five days", "value": "2.5 to 5", "unit": "mg/kg"}, {"measurement": "Survivors/treated", "setting": "[3]; [10]", "value": "0/10"}, {"measurement": "Survivors/treated (%)", "setting": "[3]; [10]", "value": 0, "unit": "%"}, {"measurement": "Survivors/treated", "setting": "[3]; [11]", "value": "4/10"}, {"measurement": "Survivors/treated (%)", "setting": "[3]; [11]", "value": 40, "unit": "%"}, {"measurement": "Survivors/treated", "setting": "[3]; [12]", "value": "10/10"}, {"measurement": "Survivors/treated (%)", "setting": "[3]; [12]", "value": 100, "unit": "%"}, {"measurement": "median effective dose", "setting": "[3]; HSV2 encephalitis, ip twice daily for five days", "value": "2.5 to 5", "unit": "mg/kg"}]}
{"compound": "O=C(O)P(=O)(O)O", "note": "[foscarnet, phosphonoformate]", "values": [{"measurement": "Survivors/treated (%)", "setting": "[2]; HSV1, 100 mg/kg ip twice daily, 5 days", "value": "(10%)"}, {"measurement": "Survivors/treated", "setting": "[2]; [13]", "value": "1/10"}, {"measurement": "Survivors/treated (%)", "setting": "[2]; [14]", "value": "(50%)"}, {"measurement": "Survivors/treated (%)", "setting": "[2]; [15]", "value": "(70%)"}, {"measurement": "Survivors/treated", "setting": "[3]; [16]", "value": "0/10"}, {"measurement": "Survivors/treated (%)", "setting": "[3]; [16]", "value": "(0%)"}, {"measurement": "Survivors/treated (%)", "setting": "[3]; [17]", "value": "(40%)"}, {"measurement": "Survivors/treated (%)", "setting": "[3]; [18]", "value": "(60%)"}, {"measurement": "Survivors/treated", "setting": "[3]; [19]", "value": "0/10"}, {"measurement": "Survivors/treated (%)", "setting": "[3]; [19]", "value": "(0%)"}]}
{"compound": "O=c1[nH]c(Nc2cccc(C(F)(F)F)c2)nc2nc[nH]c12", "note": "[m-CF3PG, N^2-(m-trifluoromethylphenyl)guanine]", "values": [{"measurement": "number of ganglia producing virus compared to control ganglia", "setting": "[1]", "value": "significantly reduced"}]}
{"compound": "O=c1[nH]c(Nc2ccccc2)nc2c1ncn2CCCCO", "note": "[HBPG, 2-phenylamino-6-oxo-9-(4-hydroxybutyl)purine]", "values": [{"measurement": "preventing recurrence of ocular HSV1 disease", "setting": "[4]; squirrel monkey model of latent HSV1 infection", "value": "clear efficacy"}, {"measurement": "frequency of recurrent ocular HSV1 disease", "setting": "[4]; squirrel monkeys", "value": "reduce the frequency"}, {"measurement": "amount of viral DNA in the relevant nerve ganglia", "setting": "[5]; mice, HSV1", "value": "reduce the amount of viral DNA"}, {"measurement": "frequency of hyperthermia-induced HSV1 reactivation", "setting": "[5]; mice", "value": "reduce the frequency"}, {"measurement": "preventing recurrence of ocular HSV1 disease", "setting": "[5]; mouse model of latent HSV1 infection", "value": "clear efficacy"}, {"measurement": "Survivors/treated", "setting": "[2]; [13]", "value": "1/10"}, {"measurement": "Survivors/treated", "setting": "[2]; [14]", "value": "6/10*"}, {"measurement": "Survivors/treated (%)", "setting": "[2]; [14]", "value": "(60%)"}, {"measurement": "Survivors/treated", "setting": "[2]; [15]", "value": "9/10*"}, {"measurement": "Survivors/treated (%)", "setting": "[2]; [15]", "value": "(90%)"}, {"measurement": "efficacy of HBPG alone", "setting": "[2]; HSV1, 25 or 50 mg/kg HBPG alone", "value": "no efficacy"}, {"measurement": "Survivors/treated", "setting": "[3]; [16]", "value": "3/10"}, {"measurement": "Survivors/treated (%)", "setting": "[3]; [16]", "value": "(30%)"}, {"measurement": "Survivors/treated", "setting": "[3]; [17]", "value": "10/10*"}, {"measurement": "Survivors/treated (%)", "setting": "[3]; [17]", "value": "(100%)"}, {"measurement": "Survivors/treated", "setting": "[3]; [18]", "value": "9/10*"}, {"measurement": "Survivors/treated (%)", "setting": "[3]; [18]", "value": "(90%)"}, {"measurement": "efficacy of HBPG alone", "setting": "[3]; HSV2, 25 or 50 mg/kg HBPG alone", "value": "no efficacy"}, {"measurement": "Survivors/treated", "setting": "[3]; [19]", "value": "1/10"}, {"measurement": "Survivors/treated (%)", "setting": "[3]; [19]", "value": "(10%)"}, {"measurement": "Survivors/treated", "setting": "[3]; [20]", "value": "3/10"}, {"measurement": "Survivors/treated (%)", "setting": "[3]; [20]", "value": "(30) %"}, {"measurement": "amount of viral DNA in the relevant nerve ganglia", "setting": "[6]; HSV2", "value": "reduce the amount of viral DNA"}, {"measurement": "frequency of hyperthermia-induced HSV2 reactivation", "setting": "[6]", "value": "reduce the frequency"}]}
{"compound": "Nc1nc2c(ncn2COCCO)c(=O)[nH]1", "note": "[acyclovir]", "values": [{"measurement": "Survivors/treated", "setting": "[2]; [21]", "value": "1/10"}, {"measurement": "Survivors/treated (%)", "setting": "[2]; [21]", "value": 10, "unit": "%"}, {"measurement": "Survivors/treated", "setting": "[2]; [22]", "value": "3/10"}, {"measurement": "Survivors/treated (%)", "setting": "[2]; [22]", "value": 30, "unit": "%"}, {"measurement": "Survivors/treated", "setting": "[2]; [23]", "value": "7/10"}, {"measurement": "Survivors/treated (%)", "setting": "[2]; [23]", "value": 70, "unit": "%"}]}
